Assay results reported in PMC10352325, “Nitro-benzylideneoxymorphone, a bifunctional mu and delta opioid receptor ligand with high mu opioid receptor efficacy” (Frontiers in Pharmacology, 2023).
Several values for one entry are separate records, joined by “and”; a condition that tells them apart may be missing. Equal entries are not always repeated.

Experiments:
[1] = target: T1, MOPr (Homo sapiens, UniProt P35372); experiment: [35S]GTPγS coupling, MOPr-CHO membranes; type: biochemical; conditions: for Emax: read-out: MOPr Emax ±SEM
T1 construct: host or cells: CHO

[2] = target: T1, MOPr; experiment: biochemical; type: binding; conditions: for MOPr ΔG: Gibb's free energy converted from experimental Ki; for Ki: [3H]-diprenorphine, CHO membranes, n = 3, mean ± SEM
Description: (§1) Cell lines, cell culture, and drug preparation. The hDOPr-CHO cell line was a generous gift from Dr. Larry Toll at the Torrey Pines Institute. The hMOPr- and hKOPr-CHO cell lines were generous gifts from John M. Streicher at the University of Arizona. All cells were cultured in 50:50 DMEM/F12 media with 10% heat-inactivated FBS and 1X penicillin/streptomycin supplement (all Gibco brand) in a 37°C humidified incubator with 5% CO2 atmosphere. Propagation cultures were further maintained with 500 μg/mL G418. Cultures were propagated for no more than 30 passages before discarding. […] Cell pellets were resuspended in 50 mM Tris HCl pH 7.4 and homogenized with a tissue grinder for 15–30 s on ice. Crude membranes were spun down at 15,000 g for 30 min. This process was repeated, and membrane preparations were stored at −80°C prior to use.
(§2) Briefly, these reactions were miniaturized to a 400 μL volume in 96 well plates and incubated at RT for 1 h at DOPr-, KOPr- and MOPr-CHO membrane preparations. The reactions were terminated by rapid filtration through 96-well format GF/B filter plates (PerkinElmer) and washed with cold 25 mM Tris HCl pH 7.4 buffer, dried, and added ECOLUME^TM scintillation cocktail from MP Biomedicals (Santa Cruz, CA, United States). The plates were read in a MicroBeta2 96-well format 6 detector scintillation counter (PerkinElmer). KI values were calculated using the IC50 of each competitor ligand and the previously established KD of ^3H-diprenorphine in each cell line using a competition binding model (GraphPad Prism 7.0).

[3] = target: T2, KOPr (Homo sapiens, UniProt P41145); experiment: biochemical; type: binding; conditions: for Ki: [3H]-diprenorphine, CHO membranes, n = 3, mean ± SEM; for Selectivity KOPr/MOPr (Ki): ratio of binding Ki
T2 construct: host or cells: CHO
Description: as §1, §2

[4] = target: T3, DOPr (Homo sapiens, UniProt P41143); experiment: biochemical; type: binding; conditions: for DOPr ΔG: Gibb's free energy converted from experimental Ki
T3 construct: host or cells: CHO
Description: as §1, §2

[5] = target: T3, DOPr; experiment: biochemical; conditions: for Emax: read-out: DOPr Emax ±SEM; for Selectivity DOPr/MOPr (EC50): ratio of [35S]GTPγS EC50
[6] = test system: C57BL/6 mice; experiment: Chronic administration and antinociceptive tolerance, 50°C WWTW; type: in vivo, mouse; conditions: for day of first statistically significant antinociceptive tolerance: 10 mg/kg morphine, 32 mg/kg 12, i.p. 3x daily, WT mice
Description: As expected, the OPr antagonist and MOPr KO experiments indicate that antinociception and likely tolerance are MOPr-mediated effects.
Chronic administration and antinociceptive tolerance. To investigate antinociceptive tolerance, either C57BL/6 WT or MOR KO mice were administered (i.p.) drug 2-3 times a day as indicated (Figure 3). […]. Mice administered with 12 were injected with 0.5 mL 0.9% saline (s.c.) twice daily. Mice were injected again at 7 p.m. on day 1, but neither weighed nor tested for antinociception. […]. A two-way analysis of variance (ANOVA) was conducted for all tolerance assays. The significance threshold was p < 0.05, and a Tukey post hoc test followed all significant ANOVAs.

[7] = test system: C57BL/6 mice; experiment: Acute antinociception, 50°C warm water tail withdrawal (WWTW); type: in vivo, mouse; conditions: i.p.; for tail withdrawal latency, dose-response: 30 min before 50°C WWTW, C57BL/6 WT mice
Description: The 50°C warm water tail withdrawal (WWTW) antinociception assay is a standard preclinical pain assay, in which clinical analgesics increase the latency of tail removal from the warm water (Figure 2A).
To compare the total antinociceptive activity over time, we determined the area under the curve (AUC) of each ligand’s time-course.
Acute antinociception: 50°C warm-water tail withdrawal test in C57BL/6 mice. […] A maximum cutoff time of 20 s was implemented to prevent tissue damage. […] Drug-stimulated antinociception was expressed as a percentage of maximum possible effect (% MPE), where % MPE = (drug latency—baseline latency)/(cutoff latency—baseline latency) × 100. The acute antinociception results were analyzed with a one-way ANOVA followed by a post hoc Dunnett test comparing the drug(s) to vehicle.

[8] = test system: rats; design: method as in Mada et al., 2020; conditions: ref Mada et al., 2020; cited from earlier work
[9] = test system: C57BL/6 mice; experiment: Toxicology on chronic administration (body weight, health); type: in vivo, mouse; conditions: for weight-loss on chronic administration: 32 mg/kg, C57BL/6 WT mice, tolerance experiment; for health on repeated administration (need for euthanasia): preliminary experiments, without saline supplement
[10] = target: T3, DOPr; experiment: βarrestin2 recruitment (DiscoveRx PathHunter); type: cell-based
Source text: We further evaluated 12 in βarrestin2 recruitment assays (DiscoveRx) to evaluate DOPr agonist vs. antagonist efficacy in a higher efficacy requiring assay (Supplementary Figure S1). […] None of the compounds in this series stimulated KOPr-mediated G-protein recruitment. Retaining selectivity over KOPr is vital because KOPr agonists cause dysphoria and hallucinations ([Bruchas et al., 2007]; [Cunningham et al., 2011]).
βarrestin2 recruitment. βarrestin2 recruitment in CHO cells expressing […] was measured using the DiscoverRx PathHunter® assay kit (DiscoveRx, Fremont, CA) according to the manufacturer’s protocol. Assays were performed on at least three separate occasions in triplicate. Luminescence was read using a Synergy 2 plate reader (BioTek, Winooski, VT).

[11] = target: T2, KOPr; experiment: [35S]GTPγS coupling, KOPr-CHO membranes; type: biochemical; conditions: Emax% relative to U69,593, read-out: KOPr Emax ±SEM

T3 sequence (P41143 whole entry): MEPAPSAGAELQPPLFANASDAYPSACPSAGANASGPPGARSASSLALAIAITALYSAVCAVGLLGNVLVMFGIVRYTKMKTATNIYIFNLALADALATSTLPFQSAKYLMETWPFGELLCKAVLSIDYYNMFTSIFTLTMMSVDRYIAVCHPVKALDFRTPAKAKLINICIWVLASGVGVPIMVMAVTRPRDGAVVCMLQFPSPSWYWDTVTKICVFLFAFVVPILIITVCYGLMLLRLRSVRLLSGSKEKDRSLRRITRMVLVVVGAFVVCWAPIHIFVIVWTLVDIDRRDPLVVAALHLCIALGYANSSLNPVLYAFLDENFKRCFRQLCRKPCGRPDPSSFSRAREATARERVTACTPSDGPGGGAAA
T1 sequence (P35372 whole entry): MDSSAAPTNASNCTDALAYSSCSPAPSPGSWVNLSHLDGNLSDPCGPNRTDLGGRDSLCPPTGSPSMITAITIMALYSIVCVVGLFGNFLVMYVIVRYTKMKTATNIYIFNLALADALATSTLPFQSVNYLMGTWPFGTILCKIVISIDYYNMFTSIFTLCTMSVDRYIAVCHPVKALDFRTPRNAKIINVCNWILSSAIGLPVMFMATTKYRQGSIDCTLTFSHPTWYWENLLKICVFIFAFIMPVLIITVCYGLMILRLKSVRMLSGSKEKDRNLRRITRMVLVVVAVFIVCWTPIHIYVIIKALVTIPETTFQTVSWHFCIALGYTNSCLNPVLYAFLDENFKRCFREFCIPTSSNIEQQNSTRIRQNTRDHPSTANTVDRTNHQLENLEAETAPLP
T2 sequence (P41145 whole entry): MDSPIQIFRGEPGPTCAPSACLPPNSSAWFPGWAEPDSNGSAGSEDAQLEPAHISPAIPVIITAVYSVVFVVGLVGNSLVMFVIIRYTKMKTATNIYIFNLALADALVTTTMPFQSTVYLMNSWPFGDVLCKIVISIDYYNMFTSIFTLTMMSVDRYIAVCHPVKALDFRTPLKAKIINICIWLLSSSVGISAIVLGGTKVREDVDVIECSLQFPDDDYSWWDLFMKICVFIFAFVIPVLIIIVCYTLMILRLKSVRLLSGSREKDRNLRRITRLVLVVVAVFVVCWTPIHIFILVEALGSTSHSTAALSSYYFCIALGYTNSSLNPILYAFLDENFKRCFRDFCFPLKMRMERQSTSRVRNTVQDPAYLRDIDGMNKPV

Structure (SMILES)	EC50 [1] [µM]	MOPr ΔG [2] [kcal/mol]	Ki [2]	Ki [3] [nM]	Selectivity KOPr/MOPr (Ki) [3]	Ki [4] [µM]	DOPr ΔG [4] [kcal/mol]	Emax [5] [%]	Emax [1] [%]	EC50 [5] [µM]	Selectivity DOPr/MOPr (EC50) [5]	also measured
CN1CC[C@]23c4c5ccc(O)c4O[C@H]2C(=O)/C(=C/c2ccc(Br)cc2)C[C@@]3(O)[C@H]1C5 [Compound 9]	> 1	-10.16 ± 0.14	39.9 ± 10.5 nM	> 1000	>25	0.121 ± 0.045	-9.50 ± 0.19	< 15	–	–	–	–
CN1CC[C@]23c4c5ccc(O)c4O[C@H]2C(=O)/C(=C/c2ccccc2)C[C@@]3(O)[C@H]1C5 [Compound 5, 7-E-benzylideneoxymorphone]	0.063 ± 0.025	–	–	–	–	–	–	22 ± 4	53 ± 9	0.026 ± 0.004	–	antinociception in the tolerance paradigm ([6]; 32 mg/kg, C57BL/6 WT mice): neither weight-loss nor antinociception; tail withdrawal latency, dose-response [7]: negligible antinociception; antinociception in the warm water tail withdrawal test [8]: < 20 % MPE; weight-loss on chronic administration [9]: neither weight-loss nor antinociception
CN1CC[C@]23c4c5ccc(O)c4O[C@H]2C(=O)/C(=C/c2ccc(O)cc2)C[C@@]3(O)[C@H]1C5 [Compound 11]	0.275 ± 0.1	-10.49 ± 0.14	22.7 ± 6 nM	> 1000	>44	0.037 ± 0.007	-10.20 ± 0.10	21 ± 6	85 ± 6	0.097 ± 0.04	0.35	–
CN1CC[C@]23c4c5ccc(O)c4O[C@H]2C(=O)/C(=C/c2ccc(F)cc2)C[C@@]3(O)[C@H]1C5 [Compound 7]	0.095 ± 0.025	-10.57 ± 0.28	19.9 ± 11.7 nM	> 1000	>50	0.055 ± 0.008	-9.97 ± 0.08	< 15	69 ± 16	–	–	–
COc1ccc(/C=C2\C[C@@]3(O)[C@H]4Cc5ccc(O)c6c5[C@@]3(CCN4C)[C@@H](O6)C2=O)cc1 [Compound 10]	0.172 ± 0.055	-10.92 ± 0.12	11 ± 2.4 nM	> 1000	>90	0.037 ± 0.009	-10.20 ± 0.13	30 ± 9	80 ± 5	0.102 ± 0.008	0.59	–
CN1CC[C@]23c4c5ccc(O)c4O[C@H]2[C@@H](O)C=C[C@H]3[C@H]1C5 [morphine, reference compound]	–	–	–	–	–	–	–	–	–	–	–	day of first statistically significant antinociceptive tolerance [6]: 3 days; health on repeated administration (need for euthanasia) [9]: did not require euthanasia
CN1CC[C@]23c4c5ccc(O)c4O[C@H]2C(=O)/C(=C/c2cccc4ccccc24)C[C@@]3(O)[C@H]1C5 [Compound 13]	> 1	-9.78 ± 0.17	75 nM and 74.8 nM	> 1000	>13	0.056 ± 0.02	-9.95 ± 0.18	36 ± 10	–	0.102 ± 0.037	–	–
CN1CC[C@]23c4c5ccc(O)c4O[C@H]2C(=O)/C(=C/c2ccc(Cl)cc2)C[C@@]3(O)[C@H]1C5 [Compound 8]	> 1	-10.46 ± 0.03	23.8 ± 1.2 nM	> 1000	>42	0.047 ± 0.016	-10.06 ± 0.17	9 ± 3	–	0.145 ± 0.014	<0.15	–
CN1CC[C@]23c4c5ccc(O)c4O[C@H]2C(=O)/C(=C/c2ccc([N+](=O)[O-])cc2)C[C@@]3(O)[C@H]1C5 [Compound 12, Nitro-benzylideneoxymorphone]	0.0022 ± 0.0005	-12.42 ± 0.17	0.9 ± 0.3 nM	180 ± 60	197	0.01 ± 0.003	-10.98 ± 0.16	28 ± 4	87 ± 7	0.02 ± 0.005	9.1	day of first statistically significant antinociceptive tolerance [6]: 2 days; antinociception after naloxone pretreatment ([6]; 32 mg/kg 12, 10 mg/kg naloxone pretreatment, C57BL/6 WT): blocked antinociception; antinociception in MOPr KO mice ([6]; 32 mg/kg i.p., C57BL/6 MOPr KO): did not show antinociception; Kb [10]: 0.032 µM; DOPr-mediated βarrestin2 recruitment, compound alone ([10]; agonist mode, any concentration): did not stimulate; area under the curve (AUC) of antinociceptive time-course ([7]; 32 mg/kg 12 or 10 mg/kg morphine, tested every 30 min): 9247 s*min; tail withdrawal latency, dose-response [7]: dose-dependent increase in tail withdrawal latency; antinociceptive potency relative to morphine ([7]; less potent than morphine, WWTW): approximately 3 fold; MOPr potency relative to that reported for oxymorphone ([1]; higher potency than oxymorphone (Olson et al., 2019)): approximately 10 fold; Emax [11]: < 15%; weight-loss on chronic administration [9]: equal or greater weight-loss than those treated with morphine; health on repeated administration (need for euthanasia) [9]: became sick and had to be euthanized
CN1CC[C@]23c4c5ccc(O)c4O[C@H]2C(=O)/C(=C/c2ccc4ccccc4c2)C[C@@]3(O)[C@H]1C5 [Compound 14]	0.012 ± 0.005	-12.20 ± 0.29	1.3 ± 0.8 nM	390 ± 140	299	0.036 ± 0.004	-10.22 ± 0.06	< 15	78 ± 11	–	–	Emax [11]: < 15%
